# Laboratory results: patent publication US20260217701A1, “SELECTIVE BET INHIBITORS AND USES THEREOF” (Tay Therapeutics Limited, priority 2022, published 2026)
# Marks after values point to notes of the source that are not given here.
# Key:
# [1] = system: IL-22, IFNγ, TNF, IL-17A, IL-12/IL-23p40; experiment: EAE study: serum cytokine analysis (Luminex); format: in vivo, C57BI/6 mice
# Method: Experimental Method H: EAE in animals treated with a BET inhibitor and vehicle. Animals were assigned to the groups outlined in Table 38.
# Compound A may be formulated as illustrated in Experimental Method A (see Table 2E.). A 40 mg/mL stock solution of Compound A in DMSO was prepared and aliquots stored at −20° C. On each day of preparation an e.g., 0.75 mL aliquot of thawed stock was diluted with an equal volume of DMSO. The remaining vehicle components were added to provide the highest dose and then diluted with vehicle to provide lower doses. A 30 mg/mL stock solution of FTY720 in ethanol was prepared and stored at −20° C. Daily, the stock solution was diluted with room temperature water to a final dosing concentration of 0.6 mg/mL. Formulated Compound A, FTY720 and vehicle were each at room temperature for dosing.
# Female C57BI/6 mice (9 weeks old) were acclimated for seven days prior to study initiation. On Day-1, animals were assigned to groups in a balanced manner to achieve similar average weights across the different groups. Chronic EAE was induced in female C57BI/6 mice following immunization with an emulsion of MOG35-55/CFA on Day 0, followed by an injection of pertussis toxin two hours after the initial immunization. On Day 1, a second injection of pertussis toxin was administered 24 hours after the initial immunization. Mice were injected subcutaneously at two sites on the back with the MOG35-55/CFA emulsion (Hooke Kit™ MOG35-55/CFA Emulsion PTX). The first injection site was located approximately 1 cm caudal of the neckline (upper back), and the second injection site was approximately 2 cm cranial of the base of the tail (lower back). The injection volume was 0.1 mL for each injection. The pertussis toxin was administered at the described times through intraperitoneal injection at a concentration of 85 ng/dose for both injections.
# On Day 28, all surviving mice except those in the FTY720 group had blood collected via retro-orbital sinus into serum separator tubes. Serum was isolated, frozen on dry ice, and stored at −80° C. for cytokine analysis. Cytokine analysis was performed using Luminex in serum samples, and the cytokines IL-22, IFNγ, TNF, IL-17A, IL-12/IL-23p40 were assessed.
# [2] = system: idiopathic pulmonary fibrosis (bleomycin); experiment: Bleomycin IPF model: lung histology, Masson's Trichrome with Ashcroft scoring; format: in vivo, C57BI/6J mice; details: for Ashcroft scores relative to IPF control group: Day 21
# Method: Animals were acclimated for two weeks prior to study initiation, and were randomized into the experimental groups outlined in Table 32. Intratracheal (IT) administration of Bleo or PBS control was conducted at the start of the study (Day 0). […] Following administration of Bleo, animals (n=10/group) were included in the study if they met the following guidelines on Day 7: […] A resection of the right lung was weighed and homogenized to determine total hydroxyproline levels by colorimetric assay, and the remaining lung lysate was saved for future analyses. For the morphological assessments, the left lung was inflation-fixed at 25 cm of water pressure with 4% paraformaldehyde in PBS for 1 minute, processed, and then sectioned. Morphological analysis of the lung was conducted using H&E-stained slides. Additional histologic stains for morphological analyses included Masson's Trichrome staining with Ashcroft scoring to determine severity of fibrosis.
# [3] = system: idiopathic pulmonary fibrosis (bleomycin); experiment: Bleomycin IPF model: oxygen saturation (pulse oximetry); format: in vivo, C57BI/6J mice; details: for Oxygen saturation levels: Bleo mice
# Method: Male C57BI/6J mice, aged 12 weeks with an approximate weight of 25-30 g were obtained from Jackson Laboratories (Bar Harbor, ME). Animals were acclimated for two weeks prior to study initiation, and were randomized into the experimental groups outlined in Table 32.
# Intratracheal (IT) administration of Bleo or PBS control was conducted at the start of the study (Day 0). […] Animals were weighed on Day 0, and indexed boluses of PBS control (Group 1) or Bleo (Groups 2-6) were delivered by IT administration.
# Following administration of Bleo, animals (n=10/group) were included in the study if they met the following guidelines on Day 7: (1) a predictable 5% loss in body weight, and (2) the presence of fibrotic pulmonary lesions, detected by micro-CT imaging. 10 animals from Group 1 additionally proceeded as controls. Animals that continued in the study on Day 7 received an oral gavage (OG) administration of PBS, Compound A (1 mg/kg, 3 mg/kg, 10 mg/kg), or Pirfenidone (300 mg/kg), as outlined in Table 31 in 25 μL boluses every other day (QOD), starting on Day 7. Compound A was formulated in 5% (v/v) DMSO/15% (v/v) PEG 400/80% (v/v) E-TPGS in purified water.
# Body weights were obtained at Day 0 at the start of the study, and again at Day 7 to determine if an animal continued in the study. Body weight was measured daily from Day 7 until Day 21, and oxygen saturation was measured by a pulse oximetry (MouseOx) system QOD from Day 7 until study completion on Day 21, and results were plotted and analyzed by Kaplan-Meier plots.
# [4] = Bleo + Compound A (1 mg/kg) OG QOD from D7
# [5] = Bleo + Compound A (3 mg/kg) OG QOD from D7
# [6] = Bleo + Compound A (10 mg/kg) OG QOD from D7
structure (smiles),measurement,setting,value
"Cn1cc(-c2ccccc2)c(-c2cn(C)c(=O)c3[nH]c(-c4cnn(C(F)(F)F)c4)cc23)cc1=O [Compound A, 6-methyl-4-(1-methyl-2-oxo-5-phenyl-1,2-dihydropyridin-4-yl)-2-(1-(trifluoromethyl)-1H-pyrazol-4-yl)-1,6-dihydro-7H-pyrrolo[2,3-c]pyridin-7-one]",IFNγ Mean Concentration (pg/mL) and (SEM),"[1]; Compound A 1 mg/kg, Day 28",1.9 (0.8) pg/mL
same,IL-12/IL-23p40 Mean Concentration (pg/mL) and (SEM),"[1]; Compound A 1 mg/kg, Day 28",34.7 (4.8)* pg/mL
same,IL-17A Mean Concentration (pg/mL) and (SEM),"[1]; Compound A 1 mg/kg, Day 28",0.5 (0.3) pg/mL
same,IL-22 Mean Concentration (pg/mL) and (SEM),"[1]; Compound A 1 mg/kg, Day 28",3.5 (1.4) pg/mL
same,TNF Mean Concentration (pg/mL) and (SEM),"[1]; Compound A 1 mg/kg, Day 28",0.8 (0.4) pg/mL
same,IFNγ Mean Concentration (pg/mL) and (SEM),"[1]; Compound A 3 mg/kg, Day 28",1.8 (0.4)* pg/mL
same,IL-12/IL-23p40 Mean Concentration (pg/mL) and (SEM),"[1]; Compound A 3 mg/kg, Day 28",27.7 (4.9)** pg/mL
same,IL-17A Mean Concentration (pg/mL) and (SEM),"[1]; Compound A 3 mg/kg, Day 28",1.6 (0.9) pg/mL
same,IL-22 Mean Concentration (pg/mL) and (SEM),"[1]; Compound A 3 mg/kg, Day 28",6.1 (3.0) pg/mL
same,TNF Mean Concentration (pg/mL) and (SEM),"[1]; Compound A 3 mg/kg, Day 28",1.4 (0.4) pg/mL
same,IFNγ Mean Concentration (pg/mL) and (SEM),"[1]; Compound A 10 mg/kg, Day 28",0.6 (0.1)*** pg/mL
same,IL-12/IL-23p40 Mean Concentration (pg/mL) and (SEM),"[1]; Compound A 10 mg/kg, Day 28",17.4 (1.5)*** pg/mL
same,IL-17A Mean Concentration (pg/mL) and (SEM),"[1]; Compound A 10 mg/kg, Day 28",0.4 (0.3) pg/mL
same,IL-22 Mean Concentration (pg/mL) and (SEM),"[1]; Compound A 10 mg/kg, Day 28",3.0 (0.7) pg/mL
same,TNF Mean Concentration (pg/mL) and (SEM),"[1]; Compound A 10 mg/kg, Day 28",0.4 (0.1) pg/mL
same,"Concentration of IL-22, TNF, and IL-17A relative to vehicle",[1]; Day 28,nor were significant changes measured
same,Concentration of IL-12/IL23p40,"[1]; Day 28, 1 mg/kg, 3 mg/kg, and 10 mg/kg",dose dependent significant decreases
same,IFNγ concentrations,"[1]; Day 28, 3 mg/kg and 10 mg/kg",dose dependent significant decrease
same,"Ashcroft Scoring, Max",[2]; [4],7
same,"Ashcroft Scoring, Mean",[2]; [4],5.25
same,"Ashcroft Scoring, Min",[2]; [4],4
same,"Ashcroft Scoring, Max",[2]; [5],5
same,"Ashcroft Scoring, Mean",[2]; [5],4.416
same,"Ashcroft Scoring, Min",[2]; [5],3
same,"Ashcroft Scoring, Max",[2]; [6],5
same,"Ashcroft Scoring, Mean",[2]; [6],3.708
same,"Ashcroft Scoring, Min",[2]; [6],2
same,Ashcroft scores relative to IPF control group,"[2]; 1, 3, 10 mg/kg",decreased Ashcroft scores
same,Ashcroft scores relative to IPF control group,"[2]; Group 5, 10 mg/kg",significantly reduced Ashcroft scores
same,Fibrosis in lung tissue (Masson's Trichrome) compared to Group 2 (Bleo+Saline),[2]; Group 5 (Compound A 10) and Group 6 (Pirfenidone),qualitatively diminished
same,Recovery in oxygen saturation relative to IPF control group (Bleo+Saline),[3]; 3 mg/kg and 10 mg/kg,significant recovery in oxygen saturation levels
same,Mean Oxygen Saturation,"[3]; Bleo + Compound A (1 mg/kg) OG QOD from D7, Day 7",80.6
same,Mean Oxygen Saturation,"[3]; Bleo + Compound A (1 mg/kg) OG QOD from D7, Day 9",84.25
same,Mean Oxygen Saturation,"[3]; Bleo + Compound A (1 mg/kg) OG QOD from D7, Day 11",87.17
same,Mean Oxygen Saturation,"[3]; Bleo + Compound A (1 mg/kg) OG QOD from D7, Day 13",88.03
same,Mean Oxygen Saturation,"[3]; Bleo + Compound A (1 mg/kg) OG QOD from D7, Day 15",88.58
same,Mean Oxygen Saturation,"[3]; Bleo + Compound A (1 mg/kg) OG QOD from D7, Day 17",88.48
same,Mean Oxygen Saturation,"[3]; Bleo + Compound A (1 mg/kg) OG QOD from D7, Day 19",89.87
same,Mean Oxygen Saturation,"[3]; Bleo + Compound A (1 mg/kg) OG QOD from D7, Day 21",87.67
same,Mean Oxygen Saturation,"[3]; Bleo + Compound A (3 mg/kg) OG QOD from D7, Day 7",82.08
same,Mean Oxygen Saturation,"[3]; Bleo + Compound A (3 mg/kg) OG QOD from D7, Day 9",83.77
same,Mean Oxygen Saturation,"[3]; Bleo + Compound A (3 mg/kg) OG QOD from D7, Day 11",85.05
same,Mean Oxygen Saturation,"[3]; Bleo + Compound A (3 mg/kg) OG QOD from D7, Day 13",85.67
same,Mean Oxygen Saturation,"[3]; Bleo + Compound A (3 mg/kg) OG QOD from D7, Day 15",85.97
same,Mean Oxygen Saturation,"[3]; Bleo + Compound A (3 mg/kg) OG QOD from D7, Day 17",89.18
same,Mean Oxygen Saturation,"[3]; Bleo + Compound A (3 mg/kg) OG QOD from D7, Day 19",89.6
same,Mean Oxygen Saturation,"[3]; Bleo + Compound A (3 mg/kg) OG QOD from D7, Day 21",89.88
same,Mean Oxygen Saturation,"[3]; Bleo + Compound A (10 mg/kg) OG QOD from D7, Day 7",82.75
same,Mean Oxygen Saturation,"[3]; Bleo + Compound A (10 mg/kg) OG QOD from D7, Day 9",84.07
same,Mean Oxygen Saturation,"[3]; Bleo + Compound A (10 mg/kg) OG QOD from D7, Day 11",86.87
same,Mean Oxygen Saturation,"[3]; Bleo + Compound A (10 mg/kg) OG QOD from D7, Day 13",87.5
same,Mean Oxygen Saturation,"[3]; Bleo + Compound A (10 mg/kg) OG QOD from D7, Day 15",88.87
same,Mean Oxygen Saturation,"[3]; Bleo + Compound A (10 mg/kg) OG QOD from D7, Day 17",89.23
same,Mean Oxygen Saturation,"[3]; Bleo + Compound A (10 mg/kg) OG QOD from D7, Day 19",92.22
same,Mean Oxygen Saturation,"[3]; Bleo + Compound A (10 mg/kg) OG QOD from D7, Day 21",93.58
same,Oxygen saturation levels,"[3]; 3 mg/kg, Day 21",about 90%
same,Oxygen saturation levels,"[3]; 10 mg/kg, Day 21",about 93.6%
same,Improvement of oxygen saturation versus pirfenidone,[3]; IPF model,superior to pirfenidone in improving oxygen saturation
